In assay [1] the test system is isolated rat thoracic aorta. In words: Vascular relaxing effect in potassium chloride (20 mM KCl) contracted isolated rat thoracic aorta. Further details: species or system rat (male SPRD). The conditions noted are these: for IC50: Rattus norvegicus, 20 mM KCl contracted strips, 37° C., read-out: IC50 (vascular relaxation in isolated rat thoracic aorta). The method, then: 1. Measurement of Vascular Relaxing Effect in Potassium Chloride Contracted Isolated rat Thoracic Aorta
Experiments were performed in thoracic aortas obtained from male SPRD rats weighing 250 to 300 g. Thoracic aortas excised from rats killed by decapitation and ensanguination were cleaned of fat and connective tissue, then were immediately placed in carbogenized TYRODE solution. The composition of the normal TYRODE solution was the following (in mM): NaCl 114.7, KCl 3.7, CaCl2 3.6, MgCl2 0.49, NaHCO3 19.9, NaH2 PO4 0.32, glucose 5.1.
Two mm wide and 20 to 25 mm long strips were cut from the aortas along a helical line at 45° angle. Aortic strips were mounted vertically between two cotton threads in 10 ml organ chambers, the lower threads were attached to the organ chambers and the upper threads were connected to isometric force transducers. The strips were incubated under 1 g resting tension at 37° C. for 120 minutes, then resting vascular tone was recorded. Then the strips were contracted with a TYRODE solution containing 20 mM KCl. The composition of the high potassium TYRODE solution was the following (in mM): NaCl 94.7, KCl 20, CaCl2 3.6, MgCl2 0.49, NaHCO3 19.9, NaH2 PO4 0.32, glucose 5.1.
When stable vascular tone developed, increasing doses of the test substance were added to the organ bath. The effects of each test substance were measured at least in 3 tissue preparations obtained from different animals. Decreases in vascular tension caused by the test substances were expressed as percentage changes and IC50 for each tissue preparation was determined by sigmoid (in few casses linear) curve fitting.
For comparison, cromakalim i.e. (±)-trans-3,4-dihydro-3-hydroxy-2,2-dimethyl-4-(2-oxo-1-pyrrolidinyl)-2H-1-benzopyrane-6-carbonitrile was used.

The test system of assay [2] is isolated guinea-pig papillary muscle. In words: Effective refractory period (ERP) prolonging effect in isolated guinea-pig right ventricular papillary muscle, in vitro. Set-up: species or system guinea-pig (male). The conditions noted are these: for ERP change at 10^-4 M / ERP change at 10^-5 M: 30 minutes incubation, mean of at least four preparations. The source says:
2. Measurement of Effective Refracter Period in Guinea-pig Right Ventricular Papillary Muscle, in Vitro.
Effective refracter period (ERP) is regarded to be the shortest time interval between two identical electrical stimuli when both can evoke a twitch in the papillary muscle. A second stimulus applied earlier than the ERP is not effective. Compounds prolonging ERP can have antiarrhythmic effect. This method is useful primarily for testing antiarrhythmic agents belonging to class III according to the Vaughan Williams classification /Bexton, R. S. and Camm. A., J. Pharmacol. Ther., 17, 315 (1982)/.
Experiments were performed in a Schuler-type organ bath system having 4 channels. Male guinea-pigs weighing 450 to 750 g were killed by a blow on the head and ensanguinated. The heart was rapidly excised and papillary muscles of appropriate size (lower than 1 mm in diameter) were dissected from the right ventricle. The preparations were vertically mounted in 20 ml organ chambers containing Krebs solution bubbled with carbogen (consisting of 95% of O2 and 5% of CO2) and maintained at 35° C. The upper end of the muscles was connected with cotton threads to force-displacement transducers coupled to a recorder for measuring isometric tension via DC-bridge amplifiers. The lower end of the papillary muscles was pinned to the organ chamber with a silver hook that was also used as a stimulating electrode. The other electrode was immersed into the organ bath and had no direct contact with the preparation. The composition of the Krebs solution was the following (in mm): NaCl 118, KCl 4.8, NaHCO3 27.2, glucose 11.1, MgSO4 1.2, KH2 PO4 1, CaCl2 2.6, pH=7.4.
The preparations were equilibrated for 120 minutes under a resting tension of 1 g. During equilibration they were electrically stimulated at a rate of 2 Hz with 1 msec rectangular pulses that were above the diastolic threshold voltage by 10%. ERP was determined using a standard extrastimulus technique. Extrastimuli (S2) were interjected between the normal stimuli (S1) in such a way that the S1 -S2 interval was initially below the refracter period of the tissue. The S1 -S2 interval was then widened by increments of 1 msec until the extrastimulus (S2) evoked twitch of the papillary muscle. The force of the twitch caused by S2 is larger than those caused by normal (S1) stimuli (postextrasystolic potentiation). The equipment measured the shortest S1 -S2 interval at which the extrastimulus evoked a twitch that was larger than the force of control twitches by 25%. This interval is equivalent with the ERP.
The experimental protocol was as follows:
Two control ERP measurements were performed 20 minutes apart, then appropriate amount of the test substance was added to produce 10^-4 M concentration in the bathing solution. After 30 minutes incubation with the test substance, two ERP measurements were performed 30 minutes apart.
When the test substance increased ERP at 10^-4 M by 40 msec or more, its effect on ERP was tested also at 10^-5 M.
The effect of the test substances was characterized by the difference between the first treated and the second control measurements. Individual data obtained from four different preparations, at least, were averaged. The reference substance used was sotalol i.e. N-[4-/1-hydroxy-2-(1-methylethylamino)ethyl/plenyl]methane sulfonamide.

Assay [3] relates to isolated Langendorff rat hearts. Put plainly: Cardioprotective effect (time to contracture, TTC) in globally ischemic isolated Langendorff rat hearts. Conditions: for TTC change vs vehicle (%) at 10 µM / TTC change vs vehicle (%) at 1 µM: Rattus norvegicus, compared to the vehicle treated group; for TTC change vs vehicle (%) at 10 µM: 10^-5 M; for TTC change vs vehicle (%) at 1 µM: 10^-6 M. Set-up: species or system rat (male Wistar). The text has this: 3. Measurement of Cardioprotective Effect in Ischemic rat Heart (Langendorff) Preparation
If the blood supply to a part of the myocardium is interrupted (e.g. during myocardial infarction), then the intracellular calcium concentration starts to rise and gradually attains pathophysiological levels. Myocardial contraction is regulated by calcium, therefore, high intracellular calcium concentration results in contracture of the myocardium. In isolated rat hearts, contracture develops in about 10 minutes after starting global ischemia, and this period is called time to contracture (TTC). Any substance which can inhibit the rise of intracellular calcium concentration and the development of contracture caused by high calcium concentration during ischemia protects the myocardium from impairment i.e. it has cardioprotective effect. Under experimental conditions,the cardioprotective effect of drugs is shown by their ability to prolong TTC. The cardioprotective effect of the compounds of the invention was examined by measuring TTC in globally ischemic Langendorff rat hearts/Longman, S. D. and Hamilton, T. C., Medicinal Research Reviews, 12, 73-148 (1992)/.
Male Wistar rats weighing 300 to 350 g were injected with 2500 IU (0.5 ml) of heparin i.p. and 10 minutes later they were anaesthetized with sodium pentobarbital/5-ethyl-5-(1-methylbutyl)-2,4,6(1H,3H,5H)-pyrimidinetrione sodium salt/in a dose of 60 mg/kg i.p. The heart was quickly excised and connected to a Langendorff apparatus via the aorta. The hearts were perfused at a constant perfusion pressure (60 mmHg) and temperature (37° C.) with a modified Krebs-Henseleit solution gassed with 95% of O2 and 5% of CO2. The composition of the modified Krebs-Henseleit solution was the following (in mM): NaCl 118, KCl 4.7, CaCl2 2.5, NaHCO3 24.88, KH2 PO4 1.18, MgSO4 1.6, EDTA 0.5 and glucose 11. Partial O2 and CO2 pressures and also pH were measured and maintained within normal limits (pO2 ==64000-77000 Pa, pCO2 =3800-4500 Pa, pH=7.3-7.45). A hole was cut in the wall of the left atrium and a water-filled plastic balloon attached to a metal cannula was then inserted into the left ventricle via the left atrium for measuring left ventricular pressure. End diastolic pressure was set to about 645 Pa, and adjusted for during the equilibration period but not later.
After a 20 minutes equilibration period, the hearts were perfused for 10 minutes with the test substance at 10^-5 or 10^-6 concentration or with the vehicle (0.04% of dimethyl sulfoxide). Global ischemia was initiated by completely shutting off the perfusate flow and carbogenization for 25 minutes. During ischemia, the time period from the beginning of ischemia until 645 Pa increase in left ventricular end diastolic pressure was measured (TTC).
Three experiments were performed with the test substances at each concentration and parameters of 3 additional vehicle treated hearts were measured along with the test substance.
Individual TTC values were averaged and the effect of the test substances was expressed as a percentage change compared to the vehicle treated group. Compounds that prolong TTC are cardioprotective. As a reference substance, lemakalim i.e. (3S)-trans-3,4-dihydro-3-hydroxy-2,2-dimethyl-4-(2-oxo-1-pyrrolidinyl)-2H- 1-benzpyrane-6-carbonitrile was used.

Where a name gives a salt, the structure may show the parent alone.

With `CN1CCN(c2nc(N)n(-c3nnc(-c4c(Cl)cccc4Cl)s3)n2)CC1` [Example 10, 2-/5-Amino-3-(4-methylpiperazino)-1H-1,2,4-triazole-1-yl/ -5-(2,6-dichlorophenyl)-1,3,4-thiadiazole hydrochloride monohydrate], the IC50 in assay [1] was over 10 µM. In assay [2], the “ERP change at 10^-4 M” value is given as 120 msec and the “ERP change at 10^-5 M” value was determined as 32 msec. Moreover, in assay [3], the TTC change vs vehicle (%) at 10 µM stood at 74% and the TTC change vs vehicle (%) at 1 µM is 47%.

For the molecule `CSc1nc(N)n(-c2nnc(-c3cccc(OCCCN(C)C)c3)s2)n1` [Example 26, 2-(5-Amino-3-methylthio-1H-1,2,4-triazole-1-yl)-5-/ 3-(3-dimethylaminopropoxy)phenyl/-1,3,4-thiadiazole hydrochloride], the IC50 in assay [1] is over 10 µM. Besides, in assay [2], the “ERP prolongation (in words)” value is “prolonged not only TTC but ERP as well”, the “ERP change at 10^-4 M” value is 148 msec and the “ERP change at 10^-5 M” value is on record as 21 msec. In addition, in assay [3], the “TTC prolongation (in words)” value is listed as “prolonged not only TTC but ERP as well”, the TTC change vs vehicle (%) at 10 µM is 41% and the TTC change vs vehicle (%) at 1 µM worked out at 33%.

Consider `CSc1nc(N)n(-c2nnc(-c3ccccc3OCCCN(C(C)C)C(C)C)s2)n1` [Example 45, 2-(5-Amino-3-methylthio-1H-1,2,4-triazole-1-yl)-5-[2-/ 3-di(2-methylethyl)aminopropoxy/phenyl]-1,3,4-thiadiazole], for which the IC50 in assay [1] is over 1 µM. In assay [3], this molecule registered a TTC change vs vehicle (%) at 10 µM of 31% and a TTC change vs vehicle (%) at 1 µM of 30%.

In the case of `CCN(CCO)CCOc1ccccc1-c1nnc(-n2nc(N3CCCCC3)nc2N)s1` [Example 90, 2-(5-Amino-3-piperidino-1H-1,2,4-triazole-1-yl)-5-{2-[2-/ 2-ethyl-2-(2-hydroxyethyl)amino/ethoxy]phenyl}-1,3,4-thiadiazole], in assay [1], the IC50 was over 10 µM. Moreover, in assay [3], the TTC change vs vehicle (%) at 10 µM was determined as 36% and the TTC change vs vehicle (%) at 1 µM is 19%.

Regarding `Nc1nc(N2CCCCC2)nn1-c1nnc(-c2ccccc2OCCNCCN2CCOCC2)s1` [Example 91, 2-(5-Amino-3-piperidino-1H-1,2,4-triazole-1-yl)-5-[2-/ 2-(2-morpholinoethyl)amino/ethoxy]phenyl-1,3,4-thiadiazole], in assay [1], the IC50 is over 1 µM. Moreover, the TTC change vs vehicle (%) at 1 µM in assay [3] turned out to be 58%.

As for `CC1(C)Oc2ccc(C#N)cc2[C@@H](N2CCCC2=O)[C@@H]1O` [lemakalim, (3S)-trans-3,4-dihydro-3-hydroxy-2,2-dimethyl-4-(2-oxo-1-pyrrolidinyl)-2H-1-benzpyrane-6-carbonitrile, reference compound], in assay [1], the “vascular relaxation of isolated rat thoracic aorta (in words)” value is recorded as “considerably relaxed isolated rat thoracic aorta”. In assay [3], the “TTC prolongation (in words)” value is given as “prolonged not only TTC”, the TTC change vs vehicle (%) at 10 µM turned out to be 55% and the TTC change vs vehicle (%) at 1 µM was determined as 20%.

The term IC50 denotes the concentration that inhibits the measured activity by half.

(Values after patent US6191152A, “2-(1,2,4-triazole-1-yl)-1,3,4-thiadiazole derivatives having an effect on the C.N.S. and the heart” (EGIS Gyogyszergyar Rt., priority 1997, dated 2001).)
